Laboratory results: paper PMC5988656, “Phase I studies of AZD1208, a proviral integration Moloney virus kinase inhibitor in solid and haematological cancers” (British Journal of Cancer, 2018)

Tested on: patients with recurrent or refractory AML
Test: AML dose-escalation study: safety and tolerability (AEs, DLTs)
Assay type: in vivo, human
From the text: Conducted at three centres in the USA and one in Canada. Dose escalation followed a conventional 3 + 3 design. […] In the first cohort, dosing between the first and subsequent patients was staggered with a 7-day interval. Dose-escalation decisions were based on the safety and tolerability data from ≥3 evaluable patients (or six if one of the first three patients experienced a dose-limiting toxicity [DLT]).
AZD1208 could be escalated by up to 100% in subsequent cohorts until one DLT was observed, after which succeeding doses were escalated by up to 50%.
In the case of a DLT, the cohort was expanded to six patients. If a DLT occurred in ≥2 patients within a cohort, the dose was determined to be a non-tolerated dose (NTD) and dose escalation was stopped.
Grade 3 or 4 toxicities not attributable to the disease or disease-related processes under investigation, and occurring before the end of Cycle 1, were considered DLTs.
The NTD was identified as the dose at which ≥2 DLTs occurred in a given cohort.

N[C@@H]1CCCN(c2c(/C=C3\SC(=O)NC3=O)cccc2-c2ccccc2)C1 [AZD1208]
Hyperglycaemia (all-grade AE) (700 mg, n = 7): 1 (14.3) n (%)
Hypocalcaemia (all-grade AE) (700 mg, n = 7): 3 (42.9) n (%)
Hypokalaemia (all-grade AE) (700 mg, n = 7): 2 (28.6) n (%)
Hypomagnesaemia (all-grade AE) (700 mg, n = 7): 2 (28.6) n (%)
Hypophosphataemia (all-grade AE) (700 mg, n = 7): 1 (14.3) n (%)
Hypotension (all-grade AE) (700 mg, n = 7): 3 (42.9) n (%)
Maculopapular rash (all-grade AE) (700 mg, n = 7): 2 (28.6) n (%)
Nausea (all-grade AE) (700 mg, n = 7): 5 (71.4) n (%)
Oedema peripheral (all-grade AE) (700 mg, n = 7): 2 (28.6) n (%)
Patients with any AE (all-grade AE) (700 mg, n = 7): 7 (100.0) n (%)
Pneumonia (all-grade AE) (700 mg, n = 7): 0 n (%)
Pyrexia (all-grade AE) (700 mg, n = 7): 0 n (%)
Rash (all-grade AE) (700 mg, n = 7): 1 (14.3) n (%)
Renal failure acute (all-grade AE) (700 mg, n = 7): 1 (14.3) n (%)
Stomatitis (all-grade AE) (700 mg, n = 7): 0 n (%)
Vision blurred (all-grade AE) (700 mg, n = 7): 0 n (%)
Vomiting (all-grade AE) (700 mg, n = 7): 2 (28.6) n (%)
Patients in whom AZD1208 was discontinued as a result of SAEs and AEs (900 mg (acute coronary syndrome, rash)): 2 n
Tolerability (900 mg QD): not tolerated
Abdominal pain (all-grade AE) (900 mg, n = 9): 1 (11.1) n (%)
Asthenia (all-grade AE) (900 mg, n = 9): 2 (22.2) n (%)
Chills (all-grade AE) (900 mg, n = 9): 2 (22.2) n (%)
Cough (all-grade AE) (900 mg, n = 9): 2 (22.2) n (%)
DLT detail, action taken (900 mg, n = 9): Rash, drug permanently discontinued; maculopapular rash, drug permanently discontinued
Decreased appetite (all-grade AE) (900 mg, n = 9): 1 (11.1) n (%)
Dehydration (all-grade AE) (900 mg, n = 9): 4 (44.4) n (%)
Diarrhoea (all-grade AE) (900 mg, n = 9): 4 (44.4) n (%)
Dyspnoea (all-grade AE) (900 mg, n = 9): 2 (22.2) n (%)
Fatigue (all-grade AE) (900 mg, n = 9): 2 (22.2) n (%)
Febrile neutropenia (all-grade AE) (900 mg, n = 9): 3 (33.3) n (%)
Headache (all-grade AE) (900 mg, n = 9): 0 n (%)
Hyperglycaemia (all-grade AE) (900 mg, n = 9): 2 (22.2) n (%)
Hypocalcaemia (all-grade AE) (900 mg, n = 9): 1 (11.1) n (%)
Hypokalaemia (all-grade AE) (900 mg, n = 9): 2 (22.2) n (%)
Hypomagnesaemia (all-grade AE) (900 mg, n = 9): 1 (11.1) n (%)
Hypophosphataemia (all-grade AE) (900 mg, n = 9): 2 (22.2) n (%)
Hypotension (all-grade AE) (900 mg, n = 9): 2 (22.2) n (%)
Maculopapular rash (all-grade AE) (900 mg, n = 9): 1 (11.1) n (%)
Nausea (all-grade AE) (900 mg, n = 9): 2 (22.2) n (%)
Oedema peripheral (all-grade AE) (900 mg, n = 9): 2 (22.2) n (%)
Patients with any AE (all-grade AE) (900 mg, n = 9): 9 (100.0) n (%)
Pneumonia (all-grade AE) (900 mg, n = 9): 0 n (%)
Pyrexia (all-grade AE) (900 mg, n = 9): 3 (33.3) n (%)
Rash (all-grade AE) (900 mg, n = 9): 2 (22.2) n (%)
Renal failure acute (all-grade AE) (900 mg, n = 9): 0 n (%)
Stomatitis (all-grade AE) (900 mg, n = 9): 0 n (%)
Vision blurred (all-grade AE) (900 mg, n = 9): 0 n (%)
Vomiting (all-grade AE) (900 mg, n = 9): 1 (11.1) n (%)
Abdominal pain (all-grade AE) (Total N = 32): 6 (18.8) n (%)
Asthenia (all-grade AE) (Total N = 32): 5 (15.6) n (%)
Chills (all-grade AE) (Total N = 32): 4 (12.5) n (%)
Cough (all-grade AE) (Total N = 32): 8 (25.0) n (%)
Decreased appetite (all-grade AE) (Total N = 32): 4 (12.5) n (%)
Dehydration (all-grade AE) (Total N = 32): 4 (12.5) n (%)
Diarrhoea (all-grade AE) (Total N = 32): 14 (43.8) n (%)
Dyspnoea (all-grade AE) (Total N = 32): 7 (21.9) n (%)
Fatigue (all-grade AE) (Total N = 32): 10 (31.3) n (%)
Febrile neutropenia (all-grade AE) (Total N = 32): 9 (28.1) n (%)
Headache (all-grade AE) (Total N = 32): 4 (12.5) n (%)
Hyperglycaemia (all-grade AE) (Total N = 32): 5 (15.6) n (%)
Hypocalcaemia (all-grade AE) (Total N = 32): 7 (21.9) n (%)
Hypokalaemia (all-grade AE) (Total N = 32): 7 (21.9) n (%)
Hypomagnesaemia (all-grade AE) (Total N = 32): 7 (21.9) n (%)
Hypophosphataemia (all-grade AE) (Total N = 32): 6 (18.8) n (%)
Hypotension (all-grade AE) (Total N = 32): 10 (31.3) n (%)
Maculopapular rash (all-grade AE) (Total N = 32): 4 (12.5) n (%)
Nausea (all-grade AE) (Total N = 32): 15 (46.9) n (%)
Oedema peripheral (all-grade AE) (Total N = 32): 9 (28.1) n (%)
Patients with any AE (all-grade AE) (Total N = 32): 31 (96.9) n (%)
Pneumonia (all-grade AE) (Total N = 32): 6 (18.8) n (%)
Pyrexia (all-grade AE) (Total N = 32): 4 (12.5) n (%)
Rash (all-grade AE) (Total N = 32): 4 (12.5) n (%)
Renal failure acute (all-grade AE) (Total N = 32): 4 (12.5) n (%)
Stomatitis (all-grade AE) (Total N = 32): 5 (15.6) n (%)
Vision blurred (all-grade AE) (Total N = 32): 4 (12.5) n (%)
Vomiting (all-grade AE) (Total N = 32): 10 (31.3) n (%)
Deaths during the study (all attributed to disease progression): nine
ECG abnormalities (all doses): No clinically significant ECG abnormalities
Patients with DLTs (all doses): five
AEs judged possibly related to AZD1208, patients (all doses, 32 patients): 68.8%
AZD1208 discontinued as a result of SAEs and AEs, patients (all doses, 32 patients): 25%
Diarrhoea possibly related to AZD1208, patients (all doses, 32 patients): 21.9%
Diarrhoea, patients (all doses, 32 patients): 43.8%
Fatigue possibly related to AZD1208, patients (all doses, 32 patients): 18.8%
Gastrointestinal disorders AEs, patients (all doses, 32 patients): 87.5%
Grade ≥3 febrile neutropenia, patients (all doses, 32 patients): 28.1%
Grade ≥3 hypotension, patients (all doses, 32 patients): 18.8%
Grade ≥3 pneumonia, patients (all doses, 32 patients): 15.6%
Nausea possibly related to AZD1208, patients (all doses, 32 patients): 37.5%
Nausea, patients (all doses, 32 patients): 46.9%
Patients who experienced an AE (all doses, 32 patients): 96.9%
Patients with a grade ≥3 AE (all doses, 32 patients): 24 n
SAE abdominal pain, patients (all doses, 32 patients): 6.3%
SAE back pain, patients (all doses, 32 patients): 6.3%
SAE febrile neutropenia, patients (all doses, 32 patients): 25.0%
SAE hypotension, patients (all doses, 32 patients): 6.3%
SAE maculopapular rash, patients (all doses, 32 patients): 6.3%
Serious AEs (SAEs), patients (all doses, 32 patients): 71.9%
Treatment-related SAEs, patients (all doses, 32 patients): 15.6%
Vomiting possibly related to AZD1208, patients (all doses, 32 patients): 18.8%
Time of DLT occurrence after the start of treatment (five patients with DLTs): 1 to 10 days
Doses generally tolerated (heavily pretreated AML, QD oral): up to 700 mg
